From ChEMBL document CHEMBL1157997, “A new biologically active acylated triterpene saponin from Silene fortunei” (J Nat Prod, 1999)

Tests used:
[1] = Enhancement of human neutrophil granulocytes phagocytosis at 10 to 100 ug/mL by flow cytometric analysis; type: functional
[2] = Cytotoxicity against human neutrophil granulocytes upto 100 ug/mL

Question: Which Activity [1] does the source give for `CC(=O)O[C@@H]1[C@H](O[C@@H]2O[C@H](CO)[C@@H](O)[C@H](O)[C@H]2O)[C@@H](O[C@@H]2O[C@@H](C)[C@H](O[C@@H]3OC[C@@H](O)[C@H](O)[C@H]3O[C@@H]3OC[C@H](O)[C@H](O)[C@H]3O[C@@H]3OC[C@H](O)[C@H](O)[C@H]3O)[C@@H](O)[C@H]2O)[C@H](OC(=O)[C@]23CCC(C)(C)C[C@H]2C2=CC[C@@H]4[C@@]5(C)CC[C@H](O[C@@H]6O[C@H](C(=O)O)[C@@H](O)[C@H](O)[C@H]6O[C@@H]6O[C@H](CO)[C@H](O)[C@H](O)[C@H]6O)[C@@](C)(C=O)C5=CC[C@@]4(C)[C@]2(C)C[C@H]3O)O[C@@H]1C` here?
Answer: The Activity was 24%.

Question: What about the Activity [2] of the same compound?
Answer: Its Activity is “Non-toxic”.
